Values after ≈ are worked out from the molar mass of the structure shown. “Also recorded” adds a separate entry of the source. Like-named read-outs stand apart in the source and are kept apart here.
How the values were obtained:
[1] = target: T1, human CYP1A2 (Homo sapiens, UniProt P05177); assay: biochemical
T1 sequence (P05177 1-516): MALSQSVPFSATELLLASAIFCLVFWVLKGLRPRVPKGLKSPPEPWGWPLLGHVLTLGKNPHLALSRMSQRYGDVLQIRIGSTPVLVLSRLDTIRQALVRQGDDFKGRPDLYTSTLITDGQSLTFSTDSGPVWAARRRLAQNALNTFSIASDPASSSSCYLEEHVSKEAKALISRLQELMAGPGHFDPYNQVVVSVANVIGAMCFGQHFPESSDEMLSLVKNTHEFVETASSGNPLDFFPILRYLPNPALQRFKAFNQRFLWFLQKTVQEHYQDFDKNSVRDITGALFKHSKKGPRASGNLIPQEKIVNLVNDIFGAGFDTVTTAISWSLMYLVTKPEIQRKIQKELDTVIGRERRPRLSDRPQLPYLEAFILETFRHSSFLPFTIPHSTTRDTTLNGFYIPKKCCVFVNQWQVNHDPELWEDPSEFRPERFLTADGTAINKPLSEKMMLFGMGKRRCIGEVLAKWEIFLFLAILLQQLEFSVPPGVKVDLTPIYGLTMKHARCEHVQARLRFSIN
Description: Escherichia coli membranes expressing human CYP1A1, CYP1A2, CYP1B1, CYP3A4, and CYP2D6, co-expressed with CYP reductase, were purchased from Cypex Ltd. (Dundee, UK).
The following methodology was developed by Crespi et al. and adapted by Shields et al. and Murray et al. to screen natural products for cytochrome P450 inhibition potential with a particular emphasis on the P450 enzymes, CYPs 1A1, 1A2, 1B1, 3A4 and 2D6. Plant extracts and various phytochemicals were evaluated for their ability to inhibit the catalytic activity of human cytochrome P450 enzymes by means of high throughput fluorometric inhibition assays conducted in 96 well microtitre plates as described by Crespi et al., BD Gentest and Murray et al..
7-Ethoxy-3-cyanocoumarin (CEC) was used as a substrate for detecting the activities of CYPs 1A1, and 1A2, 7-ethoxyresorufin (ERes) for CYP1B1, 7-benzyloxy-4-trifluoromethylcoumarin (BFC) for CYP3A4, and 3-[2-(N,N-diethyl-N-methylammonium)-ethyl]-7-methoxy-4-methylcoumarin (AMMC) for CYP2D6. The reactions were monitored fluorometrically at 37 °C, using an Eclipse Fluorescence Spectrophotometer (Varian Cary, Palo Alto, CA, USA).
The data listed represent average values from a minimum of two experiments run in triplicate: % Enzyme activity = [Min + (Max − Min)/(1+10^((LogIC50^− x) × p))] where Min and Max are the minimal and maximal observed effects, respectively; x is the concentration of test agent; EC50 is the concentration yielding half-maximal response (i.e., IC50); and p is the slope parameter.

[2] = DPPH radical scavenging antioxidant assay; details: 0.097 to 50 µg/mL in methanol, thirty-minute incubation, 517 nm
Description: The 1,1-diphenyl-2-picrylhydrazyl (DPPH) assay was used to measure the antioxidant capacity of four different extracts of the aerial parts of H. verticillata (Figure 2). The reduction of DPPH to hydrazine produces a colour change from purple to yellow, which is measured spectrophotometrically and compared with the known antioxidant, ascorbic acid, as described in the Materials and Methods section.
Figure 2 (A) DPPH antioxidant assay for H. verticillata extracts. […] Positive control activity was determined in the presence of varying concentrations of known antioxidant, ascorbic acid, ranging from 0.097 to 50 µg/mL. Data are expressed as Mean Percentage Antioxidant Activity (% Inhibition of DPPH) for duplicate assays for at least two independent experiments. (B) Summary of results. […]
The DPPH radical scavenging capacity of extracts of H. verticillata were evaluated by the method described by Williams et al.. The electron-donating ability of each extract, at varying concentrations, was measured colourimetrically through the bleaching of purple-coloured MeOH solution of DPPH. […]
Each test extract, as well as the ascorbic acid control, was made up in methanol to a starting concentration of 50 µg/mL and serially diluted in ninety-six well microtitre plates. […] After a thirty-minute incubation period at room temperature, the absorbance was read against a blank, comprising methanol, at 517 nm. […]

[3] = system: CYP1A2; details: human liver microsomes, read-out: IC50 Value, reported CYP1A2 inhibition, cited from earlier work
[4] = system: CYP2C8/C9/C19; details: human liver microsomes; read-out: IC50 Value, reported CYP2C8/C9/C19 inhibition; cited from earlier work
[5] = system: CYP3A4; details: cited from earlier work; for IC50: read-out: IC50 Value, reported CYP3A4 inhibition
[6] = system: CYP2D6; details: read-out: IC50 Value, reported CYP2D6 inhibition, cited from earlier work
[7] = system: CYP2C9; set-up: method as in PMID 21276781; details: read-out: IC50 Value, reported CYP2C9 inhibition; cited from earlier work
[8] = set-up: method as in PMID 24413832; details: aerial dried samples in ethanol; cited from earlier work
[9] = recombinant human CYP1A2, individual phytochemicals

With `COc1cc([C@@H]2c3cc4c(cc3[C@H](O)[C@H]3COC(=O)[C@H]23)OCO4)cc(OC)c1O` [4′-Demethylpodophyllotoxin] the “IC50, CYP1A2 activity” value [1, 9] was “No inhibition”, the “IC50, CYP1A2 activity” value ([1]; recombinant human CYP1A2, individual phytochemicals, listed as 4-demethylpodophyllotoxin) was “no inhibition” and the “IC50, CYP1A2 activity” value ([1]; recombinant human CYP1A2, individual phytochemicals, listed as 4′-demethylpodophyllotoxin) was “no impact”.
With `COc1cc(C[C@H]2C(=O)OC[C@@H]2Cc2ccc3c(c2)OCO3)cc(OC)c1OC` [(-)-Yatein] the IC50 [1] was 71.9 ± 1.8 µM.
For `O=C1O[C@H]([C@@H](O)CO)C(O)=C1O` [Ascorbic acid], the “IC50, DPPH antioxidant assay” value [2] was 1.32 ± 0.0 µg/mL (≈ 7.49 µM) and the “IC50, DPPH antioxidant assay” value ([2]; listed as ascorbic acid) was 1.3 µg/mL (≈ 7.38 µM).
In the case of `C=C1CCC(C(C)C)C2C=C(C)C(=O)CC12` (stereo not drawn) [Cadina-4,10(15)-dien-3-one], the IC50 ([1]; read-out: IC50, CYP1A2 activity, recombinant human CYP1A2, individual phytochemicals) is reported as > 500 µM.
In the case of `CC1(C)CC[C@]2(C(=O)O)CC[C@]3(C)C(=CC[C@@H]4[C@@]5(C)CC[C@H](O)C(C)(C)[C@@H]5CC[C@]43C)[C@@H]2C1` [Oleanolic acid], the IC50 ([3]; listed as oleanolic) is listed as > 100 µM, the IC50 [3] is listed as 144 µM and the IC50 [4] is listed as > 500 µM. For the same compound, the IC50 [1] was > 100 µM, the IC50 ([5]; human liver microsomes) was […] and the IC50 ([6]; human liver microsomes) was > 500 µM.
In the case of `COc1cc([C@@H]2c3cc4c(cc3[C@H](O)[C@H]3COC(=O)[C@H]23)OCO4)cc(OC)c1OC` [Podophyllotoxin], the “IC50, CYP1A2 activity” value [1, 9] is reported as “No inhibition” and the “IC50, CYP1A2 activity” value ([1]; recombinant human CYP1A2, individual phytochemicals, listed as podophyllotoxin) is reported as “no impact; also recorded: no inhibition”.
For `O=C(/C=C/c1ccc(O)c(O)c1)O[C@H](Cc1ccc(O)c(O)c1)C(=O)O` [Rosmarinic acid], the “IC50 Value, reported CYP3A4 inhibition” value [5] is listed as “No impact”, the IC50 [5] is listed as 241 µM and the IC50 [7] is listed as 319 µM. For the same compound, the IC50 [6] was > 500 µM.
In the case of `Cc1c(C)c2c(c(C)c1O)CCC(C)(C(=O)O)O2` (stereo not drawn) [Trolox], the “IC50, DPPH assay” value [8] is listed as 1.99 µg/mL (≈ 7.95 µM).
For `C[C@H]1[C@H](C)CC[C@]2(C(=O)O)CC[C@]3(C)C(=CC[C@@H]4[C@@]5(C)CC[C@H](O)C(C)(C)[C@@H]5CC[C@]43C)[C@H]12` [Ursolic acid], the IC50 [1] was > 100 µM.
